Test results taken from patent US20240156795A1, “METHODS AND COMPOSITIONS FOR THE TREATMENT OF DRUG RESISTANT TOPICAL INFECTIONS” (Lankenau Institute for Medical Research, priority 2020, published 2024).
“And” between values parts separate entries of the source, which are not always exact repeats. Equal values may be shown once. One block for each compound: values may come before it.

How the values were obtained:
[1] = i.v. infusion of >50% solutions, cardiac surgery trial (Bennett-Guerrero et al., 2009); cited from earlier work
onychomycosis = conditions: topical treatment of toenail fungus; cited from earlier work
Trichophyton rubrum = conditions: seven strains of Trichophyton rubrum; reported by others [28]; cited from earlier work
IDO1 = target: T1, IDO1 (Homo sapiens, UniProt P14902); experiment: IDO1 activity in U937 cells, kynurenine formation after IFN-γ induction; assay type: cell-based; conditions: IFN-γ induced, FIG. 2, read-out: IC50 for IDO inhibition in a cellular assay
T1 construct: endogenous in cells; host or cells: U937 cells, induced with IFN-γ
T1 sequence (P14902 whole entry): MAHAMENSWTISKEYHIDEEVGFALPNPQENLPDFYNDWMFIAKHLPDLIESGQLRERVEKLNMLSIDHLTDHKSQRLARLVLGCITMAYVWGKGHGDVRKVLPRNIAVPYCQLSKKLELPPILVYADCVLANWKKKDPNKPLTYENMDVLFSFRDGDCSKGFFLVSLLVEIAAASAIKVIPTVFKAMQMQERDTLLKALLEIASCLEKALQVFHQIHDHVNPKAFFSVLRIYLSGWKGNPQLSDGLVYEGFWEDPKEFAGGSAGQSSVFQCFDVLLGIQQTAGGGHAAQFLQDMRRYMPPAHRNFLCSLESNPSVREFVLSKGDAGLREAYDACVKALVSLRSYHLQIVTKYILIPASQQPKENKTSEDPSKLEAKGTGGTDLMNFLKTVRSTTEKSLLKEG
Experimental: IDO1 activity in U937 cells was assessed by spectrophotometric measurement of kynurenine formation in the medium at least 24 hours post-induction with IFN-γ. Values are means of duplicate determinations ±SD.
The IDOL enzyme was first recognized as an antimicrobial. The approved topical formulant ethyl pyruvate (EP) can also blunt IDO levels and reverse immunosuppression in the setting of cancer to enable immune eradication. […] This is finding is not previously reported in the literature. The details of the assay protocol are published elsewhere.

HIF1 = HIF1 stabilization in cells from B6 HIF-luciferase reporter mice, assayed ex vivo; assay type: cell-based, mouse
Experimental: Cells derived from B6 HIF-luciferase reporter mice were assayed ex vivo to detect the stabilization of HIF1 protein. Values are means of duplicate determinations ±SD. In the course of studies of inhibitors of proline hydroxylase-domain protein (PHD), an enzyme regulating cellular HIF1 levels, we observed that 10 μM ciclopirox enhanced the readout by 15-fold (screening data not shown). […] The details for the assay protocol are published elsewhere.

SMILES: CCOC(=O)C(C)=O [EP, ethyl pyruvate]
toxicity in humans [1]: No significant toxicities were reported

SMILES: C=C1CCN([C@H](C)[C@](O)(Cn2cncn2)c2ccc(F)cc2F)CC1 [Jublia, efinaconazole]
efficacy for complete clinical cure (onychomycosis): ≤ 18%

SMILES: OB1OCc2cc(F)ccc21 [Kerydin, tavarborole]
efficacy for complete clinical cure (onychomycosis): ≤ 10%

IC50 (IDO1): ~2 µM
EC50 (HIF1; Mus musculus, follow-up study, FIG. 1, read-out: apparent EC50 for HIF level stimulation): 5 µM
SMILES: Cc1cc(C2CCCCC2)n(O)c(=O)c1 [ciclopirox, ciclopirox olamine]
average MIC concentration (Trichophyton rubrum): ~16 μg/ml and ~77 μM
efficacy for complete clinical cure (onychomycosis): ≤ 12%
enhancement of HIF readout (HIF1; 10 μM ciclopirox, screening data not shown): 15 fold
maximal stimulation of HIF levels over the solvent control (HIF1; follow-up study, FIG. 1): ~35 fold
